Results published in patent publication US20220267356A1, “ARGINASE INHIBITORS AND METHODS OF USE THEREOF” (AstraZeneca AB, priority 2019, published 2022).
Where two headings read alike, the source gives them in different places.

Key:
Human Arginase 2 = target: T1, Human Arginase 2 (Homo sapiens, UniProt P78540); assay: Human Arginase 2 enzyme inhibition (thioarginine/DTNB absorbance at 412 nm); format: biochemical; conditions: recombinant enzyme 5 nM, 60 min, room temperature
T1 construct: made in house; host or cells: E. coli
T1 sequence (P78540 23-354): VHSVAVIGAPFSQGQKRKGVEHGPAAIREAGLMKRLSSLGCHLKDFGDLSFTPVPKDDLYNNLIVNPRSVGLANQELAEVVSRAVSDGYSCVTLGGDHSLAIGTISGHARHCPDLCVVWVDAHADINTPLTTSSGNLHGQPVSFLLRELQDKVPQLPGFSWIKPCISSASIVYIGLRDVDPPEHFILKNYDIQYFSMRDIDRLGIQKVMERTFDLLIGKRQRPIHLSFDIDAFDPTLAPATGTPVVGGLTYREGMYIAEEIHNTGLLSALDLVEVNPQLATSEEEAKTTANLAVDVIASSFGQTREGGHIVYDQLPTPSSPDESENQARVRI
From the text: (§1) The inhibitory effects of Examples 1-26 on the activity of Human Arginase 1 and Arginase 2 activity were quantified by measuring the formation of the thiol group from thioarginine using recombinant Arginase 1 or Arginase 2 produced from E. coli. The thiol group was detected with Ellman's reagent, 5,5′-dithiobis(2-nitrobenzoic acid) (DTNB). DTNB reacts with the thiol to give the mixed disulfide and 2-nitro-5-thiobenzoic acid (TNB) which is quantified by the absorbance of the anion (TNB^2−) at 412 nm.
(§2) The assays were run in clear 384 well plates (Greiner cat no: 781101). Various concentrations of Examples 1-26 in 300 nL DMSO were dispensed to assay plates using an Echo acoustic dispenser immediately followed by plate sealing and centrifugation. Two pre-mixes were prepared from reagents thawed immediately before addition to assay plates. Pre-mix one comprised human Arginase 1 or human Arginase 2, at a final concentration of 5 nM and 0.5 mM DTNB in assay buffer, 45 mM HEPES pH7.5, brij 35, 0.045% (w/v) and 100 μM MnCl2. Pre-mix two comprised freshly thawed 0.5 mM thioarginine in assay buffer. Fifteen microlitres of pre-mix one was dispensed to assay plates containing Examples 1-9, centrifuged and incubated for 30 minutes at room temperature prior to adding fifteen microlitres of pre-mix two.
(§3) Assay plates were centrifuged prior to reading absorbance at 412 nm in a Pherastar multi-mode plate reader to collect data at time point 0 (T0). The plates were incubated at room temperature for 60 min prior to reading again to collect data at time point 1 (T1). Data is derived by subtracting the A412 signal measured at T0 (time point 0) from that measured at T1 (time point 1). The data was transformed to % effect using the equation:
(§4) Compound % effect=100*[(X−min)/(max−min)],
(§5) where X represents the normalized value for the compound based on the Min (vehicle) and Max (reference compound) inhibition control.
(§6) The concentration of Examples 1-26 that inhibited the activity by 50% (i.e.the IC50) was calculated by plotting the % effect versus test compound concentration and fitting the data using the Genedata Screener Smart fit algorithm.

Human Arginase 1 = target: T2, Human Arginase 1 (Homo sapiens, UniProt P05089); assay: Human Arginase 1 enzyme inhibition (thioarginine/DTNB absorbance at 412 nm); format: biochemical; conditions: recombinant enzyme 5 nM, 60 min, room temperature
T2 construct: made in house; host or cells: E. coli
T2 sequence (P05089 1-322): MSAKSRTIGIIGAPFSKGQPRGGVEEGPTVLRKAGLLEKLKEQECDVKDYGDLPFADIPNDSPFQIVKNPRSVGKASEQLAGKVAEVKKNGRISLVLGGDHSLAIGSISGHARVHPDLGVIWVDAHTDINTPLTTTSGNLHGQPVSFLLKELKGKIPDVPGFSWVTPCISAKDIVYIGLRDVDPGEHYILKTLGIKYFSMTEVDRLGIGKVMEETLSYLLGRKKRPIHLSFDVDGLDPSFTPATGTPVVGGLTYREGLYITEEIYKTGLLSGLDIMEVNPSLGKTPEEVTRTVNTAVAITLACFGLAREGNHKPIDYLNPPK
From the text: as §1, §2, §3, §4, §5, §6

[1] = Bioavailability / pharmacokinetic study in male rats (IV and PO); format: in vivo; conditions: rat; for Vd: read-out: Vdss; for Cmax / Tmax / AUC: PO 5 mg/kg; for bioavailability: 5 mg/kg, pro-drug when dosed as pro-drug, PO vs IV
Protocol: Example 14 is a prodrug form of Example 1. Examples 19 to 22 and 24 to 26 are prodrugs of example 18. […] Example 19 was formulated in 0.9% w/v saline pH 4 (adjusted with 1 M HCl) for IV dosing. The formulation was dosed at 2 mg/kg by femoral catheter to two male rats each (170-250 g). Jugular vein catheter serial blood samples were taken at 0.033, 0.083, 0.167, 0.5, 1, 2, 4, 8, and 24 hrs post-dose. For PO dosing, Example 19 was formulated in deionized water pH 4 (adjusted with 1 M HCl) and dosed at 5 mg/kg by oral gavage to two male rats each (170-250 g). Serial blood samples were taken by jugular vein catheter at 0.25, 0.5, 1, 1.5, 2, 3, 4, 8, and 24 hrs post dose. Plasma samples were generated from blood using low speed centrifugation. A single set of calibration standards containing Example 18 and Example 19 were prepared by spiking blank plasma. The samples and standards were extracted by precipitation with two volumes of acetonitrile followed by centrifugation. The results obtained were used to determine the Cl (mL/min/kg), Vdss (L/kg), Cmax (μM), AUC (μM h), tmax (h), and % F for both Example 18 and Example 19. Absolute bioavailability was determined by comparing the PO dose normalized AUC of Example 18 when dosed as Example 19, versus the dose normalized IV AUC of Example 18 when dosed as Example 18. Where appropriate, measured, not nominal, doses were used in the calculation. In an analogous fashion, the same procedure was repeated for Examples 14, 20 to 22, and 24 to 26.

[2] = plasma, payload when dosed as payload, IV
[3] = pro-drug in plasma when dosed as pro-drug, IV 2 mg/kg
[4] = pro-drug in plasma when dosed as pro-drug

SMILES	IC50 (Human Arginase 2) [µM]	IC50 (Human Arginase 1) [µM]	clearance [1, 2] [mL/min/kg]	Vd [1, 2] [L/kg]	clearance [1, 3] [mL/min/kg]	Vd [1, 3] [L/kg]	Cmax [1, 4] [nM]	Tmax [1, 4] [min]	bioavailability ([1]; plasma) [%]	AUC [1, 4] [µM·h]
NC[C@@H](CCCB(O)O)[C@H](N)C(=O)O [Example 1, (2S,3R)-2-amino-3-(aminomethyl)-6-boronohexanoic acid]	0.081	0.039	8.26	0.46	–	–	–	–	–	–
C[C@H](N)C(=O)N[C@H](C(=O)O)[C@@H](CN)CCCB(O)O [Example 14, (2S,3R)-3-(aminomethyl)-2-((S)-2-aminopropanamido)-6-boronohexanoic acid]	3.9	2.18	–	–	46.1	0.47	130	15	–	–
NC[C@H](CCCB(O)O)[C@H](N)C(=O)O [Example 18, (2S,3S)-2-amino-3-(aminomethyl)-6-boronohexanoic acid]	0.22	0.09	7.3	0.38	–	–	–	–	–	–
CC(C)[C@H](N)C(=O)NC[C@H](CCCB(O)O)[C@H](N)C(=O)O [Example 19, (2S,3S)-2-amino-3-(((S)-2-amino-3-methylbutanamido)methyl)-6-boronohexanoic acid]	0.11	0.06	–	–	16.4	0.47	660	30	8.3	1.4
C[C@H](N)C(=O)NC[C@H](CCCB(O)O)[C@H](N)C(=O)O [Example 20, (2S,3S)-2-amino-3-(((S)-2-aminopropanamido)methyl)-6-boronohexanoic acid]	0.14	0.009	–	–	12.5	0.21	440	45	5.1	1.25
CC[C@H](N)C(=O)NC[C@H](CCCB(O)O)[C@H](N)C(=O)O [Example 21, (2S,3S)-2-amino-3-(((S)-2-aminobutanamido)methyl)-6-boronohexanoic acid]	0.061	0.039	–	–	14.1	0.22	230	30	1.5	0.35
CC[C@H](C)[C@H](N)C(=O)NC[C@H](CCCB(O)O)[C@H](N)C(=O)O [Example 22, (2S,3S)-2-amino-3-(((2S,3S)-2-amino-3-methylpentanamido)methyl)-6-boronohexanoic acid]	0.1	0.049	–	–	13.1	0.2	450	60	4.5	0.92
NCC(=O)NC[C@H](CCCB(O)O)[C@H](N)C(=O)O [Example 24, (2S,3S)-2-amino-3-((2-aminoacetamido)methyl)-6-boronohexanoic acid]	0.065	0.022	–	–	8.4	0.2	880	105	6.4	2.9
C[C@H](N)C(=O)N[C@H](C(=O)O)[C@H](CN)CCCB(O)O [Example 25, (2S,3S)-3-(aminomethyl)-2-[[(2S)-2-aminopropanoyl]amino]-6-borono-hexanoic acid]	0.15	0.068	–	–	28.3	0.18	40	15	–	–
CC(C)[C@H](N)C(=O)N[C@H](C(=O)O)[C@H](CN)CCCB(O)O [Example 26, (2S,3S)-3-(aminomethyl)-2-[[(2S)-2-amino-3-methyl-butanoyl]amino]-6-borono-hexanoic acid]	2.03	2.56	–	–	26.6	0.15	–	–	–	–
